This note sets out measurements from patent US10213494B2, “Treatment of synucleinopathies” (The Brigham and Women's Hospital, Inc., priority 2007, dated 2019).

One data set relates to MES-syn cells. Nature of the data set: LDH release assay of cellular integrity. The class given is cell-based, rodent. The settings on record: enzyme cDNA 5 μg/10 cm dish, versus control vector transfected cells. The procedure: To confirm that the effect of Cathepsin D on lowering of αS in MES23.5 cells was specific and was not caused by a general decrease in cellular metabolism and integrity, the MTT and LDH assays were performed on MES-syn cells that had been co-transfected with the highest amount of Cathepsin D-encoding cDNA (5 μg/10 cm dish). Lysis of cells with 0.1% Triton-X® 100 served as a positive control, representing maximal cell death.
To confirm that the effect of Cathepsin F on lowering of αS was specific and was not caused by a general decrease in cellular integrity, the LDH assay was performed on MES-syn cells that had been co-transfected with Cathepsin F-encoding CTSF cDNA (5 μg/10 cm dish). Lysis of cells with 0.1% Triton-X 100 served as a positive control for cell toxicity, promoting maximal cell death.
On the technique in general: LDH leaks from cells whose membrane has failed.

In another data set the test system is rat αS in MES23.5 cells. Nature of the data set: Sandwich ELISA of co-transfected rat αS in MES23.5 cells. It counts as cell-based. The settings on record: human Cathepsin D, same paradigm.
Data set [1] relates to α-synuclein protein (wild-type, human) in MES23.5 cells. Nature of the data set: Sandwich ELISA of intracellular α-synuclein in MES23.5 cells co-transfected with wild-type human SNCA cDNA and lysosomal enzyme cDNA. The class given is cell-based. The settings on record: for intracellular α-synuclein level, % of control levels: n=2. The protocol: Sera from six rabbits were raised and affinity-purified at Open Biosystems, Inc. (openbiosystems.com) against recombinant, full-length human αS. Recombinant αS had been HPLC- and MS-characterized and subjected to amino acid composition and protein concentration analyses. For ELISA, 384-well MaxiSorp plates (Nunc, Inc) were coated with 50 μl/well capturing polyclonal Ab (hSA-2) diluted in coating buffer (NaHCO3 with 0.2% NaN3, pH 9.6). Following washes with PBS/0.05% Tween-20 (PBS-T), plates were blocked for 2 hours at 37° C. in blocking buffer (1.125% fish skin gelatin; PBS-T). After 4 washes, samples were loaded and incubated at 4° C. for 12 hours. Biotinylated Syn-1 mAb (as the assaying Ab) was generated using 200 μg Sulfo-NHS-LC Biotin (Pierce), diluted in blocking buffer and added to the plate for 2 hours at 37° C. Following 4 washes, ExtrAvidin phosphatase (Sigma) diluted in blocking buffer was applied for 1 hr at 37° C. Color development was carried out by using Fast-p-Nitrophenyl Phosphate (Sigma) and monitored kinetically at OD 405 nm every 5 minutes for up to 60 minutes.
To optimize a ‘DNA: LIPOFECTAMINE® 2000’ ratio with low cell toxicity, MES23.5 cells were transfected with either 0.25, 0.5 or 1 μg αS-encoding, wild-type, human SNCA cDNA plus empty vector cDNA up to a total of 5.5 μg DNA per 10 cm dish. 24 hours after transfection, cell lysates were harvested as described above. For serial dilutions of cell lysates, blocking buffer containing 0.5% lysate from vector-transfected wells was used as diluent, which was also used to create the blank and the corresponding standard curve of recombinant human αS. Saturation kinetics were examined for identification of time point(s) where standards and sample dilutions were in the log phase.
MES cells were transfected with 0.5 μg per 10 cm dish of αS-encoding SNCA cDNA-carrying plasmid, plus 5 μg per 10 cm dish of wild-type or mutant, human GBA-encoding plasmid. The GBA variants used were wild type, N370S, D409H, L444P, E235A, and E340A. These 5 GBA mutants were created by site-directed mutagenesis, using the Quickchange® kit (Stratagene), and sequence-verified. The N370S, D409H and L444P are known to occur (in the homozygous or compound heterozygous state) in Gaucher disease in the heterozygous state in Parkinson Disease patients and/or patients with dementia with Lewy bodies. The E235A and E340A mutant GBA proteins are not known to occur in people.
24 hours after transfection, MES cells were lysed as described above and all lysates were analyzed by ELISA. […] This is in contrast to the result observed in Example 5 above. The observed discrepancy can reflect the differences in total DNA transfected in the two paradigms (FIG. 2B; FIG. 2C versus FIG. 4), thereby leading to changes in the DNA:LIPOFECTAMINE® 2000 ratio, and in the role of co-expressed prosaposin (saposin C). It is therefore conceivable that wild-type GBA can have variable effects on αS levels in these MES23.5 cells, depending on the rate of αS import into lysosomes and the composition as well as activation state of more than one lysosomal enzyme.
MES23.5 cells were transfected with 0.5 μg per 10 cm dish of an αS-encoding, wild-type, human SNCA cDNA-carrying plasmid (referred to as MES-hSNCA WT cells in the Western blot shown in FIG. 6), plus either 1.25, 2.5 or 5 μg per 10 cm dish of a human Cathepsin D-encoding CTSD cDNA plasmid, which was purchased from OriGene Technologies, Inc., and was under the control of a CMV promoter. The Cathepsin D clone was fully sequence-verified after isolation and maxiprep. Each transfection arm was balanced with empty vector DNA up to a total of 5.5 μg DNA per 10 cm dish. 24 hours after transfection, cells were lysed, and the resulting lysates were analyzed by the sandwich ELISA described herein. […]
(In general: An ELISA detects its analyte on a solid surface through an enzyme-linked reagent.)

Regarding “cathepsin D: human lysosomal aspartyl protease expressed from CTSD cDNA plasmid under a CMV promoter”, in the data set with MES-syn cells, the LDH signal result is given as “identical to that of control vector transfected cells”. Moreover, the “effect on level of co-transfected rat αS” value with rat αS in MES23.5 cells was “able to lower the levels of co-transfected rat αS”. In addition, the “intracellular α-synuclein level, % of control levels” value is given as 68+/−17.7% in data set [1] (cathepsin D cDNA 1.25 μg/10 cm dish, 24 hours) and 53+/−16.8% in data set [1] (cathepsin D cDNA 2.5 μg/10 cm dish, 24 hours). The “intracellular total α-synuclein level, % of control levels” value in data set [1] (cathepsin D cDNA 5 μg/10 cm dish, 24 hours, n=11) is given as 25.3+/−7.0%. The “αS-lowering effect, percent of total intracellular αS concentration detectable” value in data set [1] (cathepsin D co-expression) was at most 75%.
